Tests used:
Format in all cases: cell-based
[1] = target: T1, human oxytocin receptor (Homo sapiens, UniProt P30559); experiment: Oxytocin receptor OXTR activity/inhibitory effect, intracellular calcium by calcium dye fluorescence imaging; settings: ECSV304 cells overexpressing human oxytocin receptor, FIGS. 3 and 4
T1 construct: expressed in transfected cells; host or cells: recombinant human epithelial cells, cell line ECSV304 as printed
T1 sequence (P30559 1-389): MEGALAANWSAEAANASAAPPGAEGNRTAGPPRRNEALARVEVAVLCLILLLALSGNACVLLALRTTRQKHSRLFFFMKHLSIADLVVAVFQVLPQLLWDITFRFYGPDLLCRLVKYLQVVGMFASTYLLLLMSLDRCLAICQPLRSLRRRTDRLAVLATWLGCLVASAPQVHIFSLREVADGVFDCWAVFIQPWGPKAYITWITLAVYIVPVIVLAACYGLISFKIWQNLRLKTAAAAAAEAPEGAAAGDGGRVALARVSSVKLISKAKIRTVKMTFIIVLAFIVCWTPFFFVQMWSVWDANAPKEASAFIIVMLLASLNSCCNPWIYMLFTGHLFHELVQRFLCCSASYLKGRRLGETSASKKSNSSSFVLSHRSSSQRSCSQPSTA
Method: Recombinant human epithelial cells overexpressing human oxytocin receptor (Name of cell line: ECSV304) were cultured and treated with cephalotocin at different concentrations at room temperature. The change in intracellular calcium concentration induced by cephalotocin-oxytocin receptor binding was measured by calcium dye fluorescence imaging.
To confirm the receptor activation effect, the response to increasing the intracellular calcium concentration that oxytocin 1 μM may cause was taken as 100%, and the relative magnitude of the response induced when treated with cephalotocin alone without oxytocin was measured
(§1) To confirm the receptor inhibitory effect, the response to increasing the intracellular calcium concentration that oxytocin 30 nM may cause was taken as 100% standard, and the relative magnitude of the response induced when treated with oxytocin 30 nM and cephalotocin simultaneously was measured.
(§2) . The results confirming the regulatory effect on the receptors OXTR, V1AR, V1BR and V2R by Octopus vulgaris octopressin are shown in FIGS. 3 and 4, respectively.

[2] = target: T2, human vasopressin V1A receptor (Homo sapiens, UniProt P37288); experiment: Vasopressin receptor V1AR activity/inhibitory effect, intracellular calcium by calcium dye fluorescence imaging; settings: CHO cells overexpressing human V1A receptor, FIGS. 3 and 4
T2 construct: expressed in transfected cells; host or cells: CHO (Chinese hamster ovary) cells
Method: (§3) Recombinant human vasopressin V1A receptor-overexpressing Chinese hamster ovary cells (cell line name: CHO) were cultured and treated with cephalotocin at different concentrations at room temperature, and the change in intracellular calcium concentration induced by cephalotocin-vasopressin V1A receptor binding was measured by the calcium dye fluorescence imaging method.
as §1, with “vasopressin 10” for “oxytocin 30”
as §2

[3] = target: T3, human vasopressin V1B receptor (Homo sapiens, UniProt P47901); experiment: Vasopressin receptor V1BR activity/inhibitory effect, intracellular calcium by calcium dye fluorescence imaging; settings: RBL cells overexpressing human V1B receptor, FIGS. 3 and 4
T3 construct: expressed in transfected cells; host or cells: RBL (basophilic leukemia) cells
T3 sequence (P47901 1-424): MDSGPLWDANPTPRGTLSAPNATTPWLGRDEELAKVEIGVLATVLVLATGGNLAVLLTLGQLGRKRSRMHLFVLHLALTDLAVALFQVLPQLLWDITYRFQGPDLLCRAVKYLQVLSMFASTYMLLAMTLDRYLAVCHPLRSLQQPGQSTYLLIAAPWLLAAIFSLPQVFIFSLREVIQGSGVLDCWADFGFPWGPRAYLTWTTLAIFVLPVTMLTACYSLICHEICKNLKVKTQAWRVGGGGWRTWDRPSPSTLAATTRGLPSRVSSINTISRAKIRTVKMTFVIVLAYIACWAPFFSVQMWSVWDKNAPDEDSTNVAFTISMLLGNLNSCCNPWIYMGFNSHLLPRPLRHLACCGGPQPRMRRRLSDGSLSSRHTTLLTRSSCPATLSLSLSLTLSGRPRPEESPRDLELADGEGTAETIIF
Method: as §3, with “V1B” for “V1A”, “[…] basophilic leukemia” for “Chinese hamster ovary cells”, “RBL) was” for “CHO) were”
The results confirming the regulatory effect on the receptors OXTR, V1AR, V1BR and V2R by Octopus vulgaris octopressin are shown in FIGS. 3 and 4, respectively.

[4] = target: T4, human vasopressin V2 receptor (Homo sapiens, UniProt P30518); experiment: Vasopressin receptor V2R activity/inhibitory effect, intracellular cAMP by HTRF; settings: CHO cells overexpressing human V2 receptor, FIGS. 3 and 4
T4 construct: expressed in transfected cells; host or cells: CHO (Chinese hamster ovary) cells
Method: Recombinant human vasopressin V2 receptor-overexpressing Chinese hamster ovary cells (cell line name: CHO) were cultured and treated with cephalotocin at different concentrations at room temperature for 30 minutes, and intracellular cAMP concentration accumulated for 30 minutes by cephalotocin-vasopressin V2 receptor binding was measured by the HTRF fluorescence imaging method. […]. To confirm the receptor inhibitory effect, the response to increasing the intracellular cAMP concentration that vasopressin 0.03 nM may cause for 30 minutes was taken as 100% standard, and the relative magnitude of the response induced when treated with vasopressin 0.03 nM and cephalotocin simultaneously was measured.
as §2

T2 sequence (P37288 whole entry): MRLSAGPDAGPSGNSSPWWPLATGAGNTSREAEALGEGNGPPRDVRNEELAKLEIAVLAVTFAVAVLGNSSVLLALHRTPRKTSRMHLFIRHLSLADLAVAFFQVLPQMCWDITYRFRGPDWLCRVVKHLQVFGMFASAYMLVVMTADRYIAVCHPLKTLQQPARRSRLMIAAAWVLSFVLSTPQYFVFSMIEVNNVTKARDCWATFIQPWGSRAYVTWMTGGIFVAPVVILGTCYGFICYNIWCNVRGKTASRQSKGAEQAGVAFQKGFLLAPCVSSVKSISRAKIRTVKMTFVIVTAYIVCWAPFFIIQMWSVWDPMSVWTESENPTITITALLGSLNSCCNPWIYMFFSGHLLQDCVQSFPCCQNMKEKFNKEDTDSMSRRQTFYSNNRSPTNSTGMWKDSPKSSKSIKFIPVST

Regulation (activation/inhibition) of OXTR [1]: does not regulate
Regulation (activation/inhibition) of V1AR [2]: does not regulate
Regulation (activation/inhibition) of V1BR [3]: does not regulate
Regulation (activation/inhibition) of V2R [4]: does not regulate
Substance: octopressin

From US12558397B2, “Composition for prevention, amelioration, or treatment of urination-related diseases comprising cephalotocin” (KOREA RESEARCH INSTITUTE OF CHEMICAL TECHNOLOGY, priority 2020, dated 2026)
